Here are results for three molecules from patent US12564574B2, “Pharmaceutical composition for preventing or treating parkinson's disease, comprising 2-(4-(1-hydroxypropane-2-yl)phenyl)isoindoline-1-one compound” (YEP BIO CO. LTD., priority 2020, dated 2026).

Data set [1] deals with PGC-1α protein in SH-SY5Y cells. The data set is described as follows: Immunoblot of PGC-1α protein after treating SH-SY5Y cell line with compounds. The class given is cell-based, human. The note with it: SH-SY5Y cell line, 0.01, 0.1, 1, 10 μM, 48 hours. How it is done: To culture human neuroblasts SH-SY5Y cells (ATCC, Manassas, VA), 10% FBS (vol/vol, Welgene Gold Serum, cat #S 001-07) and DMEM (Welgene fresh media DMEM, cat #LM 001-05) including antibiotics were used, wherein the culture was performed in an incubator (Forma Direct Heat CO2 incubator, Thermo Scientific) at 37° C. in the presence of 5% carbon dioxide.
(§1) RIPA buffer was added to the SH-SY5Y cells and SN of C57L/6N mice, followed by homogenization with a homogenizer. Thereafter, the freezing and melting process was repeated three times, and quantification was performed using a BCA kit based on BSA to check the total amount of protein.
(§2) Lysates were identified by adding 2× SDS sample buffer, heating at 95° C. for 10 minutes to perform immunoblot, and then treating the desired protein with antibody.
(§3) In the immunoblot experiment, the darkness of the band was measured using the ImageJ (NIH, Bethesda, […], USA, http://rsb.info.nih.gov/ij/) program, and statistical analysis was performed using the darkness of the protein band in proportion to the loading control. The statistical analysis was performed using the GraphPad Prism version 7 (GraphPad Software) program. For the data, the unpaired two-tailed student's t-test was applied, wherein p<of 0.05 indicates statistical significance.
As shown in Example 3, an image of an immunoblot performed after treating the SH-SY5Y cell line with compounds (10 μM, 48 hours) is shown in FIG. 6.

The subject of data set [2] is Parkinson's disease model mice. The data set is described as follows: Pole test in AAV-PARIS Parkinson's disease model mice. The class given is in vivo. The note with it: AAV-PARIS injected mice, YPD-01 diet 0.5% w/w. From the text:
(§4) To prepare Parkinson's disease model mice, AAV-PARIS was stereotaxically injected into the substantia nigra area. The mice were fed with Chow or YPD-01 (2-(4-(1-hydroxypropan-2-yl)phenyl) isoindoline-1-one) diet (0.5% w/w) for 4 weeks, and then the brain was collected and sectioned using a microtome. Dopaminergic neurons were visualized by carrying out a reaction in the mouse brain tissue sliced into 35 μm sections using TH antibody, a neuronal dopamine marker, then exposed to Vectastine ABC (Vector biolabs) and DAB (Sigma) solutions. Six […] were used in each experiment.
In order to identify whether YPD-01 is effective in inhibiting the death of dopamine neurons and Parkinson's disease-like behavioral abnormality in the Parkinson's disease model, as shown in Example 5 above, a pole test, which is the most reliable behavioral experiment, was performed.
To investigate behavioral abnormality, Parkinson's disease model mice were transferred to a pole test cage to have the mice adapted for 3 minutes, and then the mouse tails were held and placed on the tip of a vertically erected pole. The time from the moment the mouse took off its hind foot from the tip of the pole until the mouse came down to the floor was measured.

Data set [3] has as its system PGC-1α protein in the SN of mice. The data set is described as follows: Immunoblot of PGC-1α protein in the substantia nigra (SN) of mice fed compound diet. The format is in vivo. The note with it: diet 0.5% w/w for 1 week. The protocol: as §1, §2, §3
In FIG. 7, an immunoblot is shown for protein derived from the SN of mice fed with Chow, YPD-02 (2-[4-(3-oxo-1H-isoindol-2-yl)phenyl]propanoic acid), or YPD-01 (2-(4-(1-hydroxypropan-2-yl)phenyl) isoindoline-1-one) diet (0.5% w/w) for 1 week (quantitative graph quantified with β-actin/data was expressed as mean±SEM/statistical significance was measured by applying the unpaired two-tailed student t-test. * p<0.05, ** p<0.01.).

Data set [4] relates to dopamine neurons in substantia nigra of AAV-PARIS Parkinson's disease model mice. The data set is described as follows: Death of dopamine neurons in AAV-PARIS Parkinson's disease model mice (TH immunohistochemistry and immunoblot). The class given is in vivo. The note with it: AAV-PARIS injected mice, diet 0.5% w/w for 4 weeks.
Source text: as §4
100 μl of pentobarbital (10 mg/ml) was injected into the abdomen of 8-week-old mice for anesthetization, mouse pericranium was peeled off, and then the left brain (X: 1.2, Y: −3.2, Z: −4.5) and right brain (X: 1.2, Y: 3.2, Z: −4.5) regions were marked based on the bregma. The marked portion was drilled, and the virus was injected slowly (30 seconds per 0.2 μl) through a syringe. After injecting the virus into the left brain, followed by a 2-minute standby, the same procedure was performed on the other side. After the surgical suture, the mice were carefully monitored, and breeding was followed in the cage until the recovery. […]

Data set [5] has as its system PGC-1α and main target genes (NRF-1, Tfam). The data set is described as follows: RT-qPCR of PGC-1α and its target genes (NRF-1, Tfam) in Parkinson's disease model mice. The class given is in vivo. The note with it: substantia nigra of AAV-PARIS injected mice, diet for 4 weeks.
Source text: as §4
In the animal model experiment set up as in Example 5, whether the expression of PGC-1α and the main target genes (NRF-1, Tfam) of PGC-1α increases due to YPD-01 intake was measured by RT-qPCR method.
The midbrain of mice into which AAV-PARIS was stereotaxically injected and which were fed with Chow or YPD-01 diet for 4 weeks was collected, and RNA was extracted using the total RNA extraction kit (Intron Biotechnology). cDNA was synthesized using the cDNA synthesis kit (Enzynomics) and oligo dT from the extracted RNA. Using primers and SYBR green (Qiagen) reagents for the gene to be analyzed, gene expression in Rotor gene Q (Qiagen) was quantified via qPCR.

The test system of another data set is PGC-1α promoter. The data set is described as follows: PGC-1α promoter luciferase assay (compound screening) in SH-PGC-1α-Luc reporter cells. The format is cell-based, human. The note with it: SH-PGC-1α-Luc cells, comparison of 14 drugs. The protocol: In order to prepare lentiviruses for preparation of stable reporter SH-SY5Y cells (SH-PGC-1α-Luc), 1-kb pGL3-PGC-1α promoter-luciferase was cloned to pGreenFire (System Biosciences), and a lentivirus construct was first prepared (provided by Akyosi Fukamizu from University of Tsukuba, Japan).
HEK293T cells cultured in 15 cm dish were subjected to transfection with 32 μg of pGreenFire vector, 9 μg of VSVg envelope, 6.25 μg of Prev, and 12.5 μg of pMDL.
After 48 hours, viral supernatants were collected and concentrated using ultracentrifugation, and viral pellets were dissolved with PBS. SH-SY5Y cells were treated with concentrated virus and screened with puromycin (1 μg/ml) a day later.
SH-PGC-1α-Luc was dispensed in a white, flat-bottomed 96-well plate, where culture was performed to accommodate 10,000 cells in 100 μl of DMEM (10% FBS+penicillin/streptomycin (P/S)) per well, and the cells were stabilized in an incubator at 37° C. in the presence of 5% CO2 for 12 hours.
The next day, each drug was added to 50 μl of warmed DMEM to the final concentration of 20 μM, then 50 μl of DMEM was removed from the cell-containing plate, and 50 μl of drug-containing DMEM was added (final concentration of 10 μM). Cells were then exposed to the drug for 48 hours, and luciferase activity was measured using SteadyGlo reagent (Promega). […]

As to `CC(C(=O)O)c1ccc(N2Cc3ccccc3C2=O)cc1` (stereo not drawn) [YPD-02, 2-[4-(3-oxo-1H-isoindol-2-yl)phenyl]propanoic acid, reference compound], the “amount of PGC-1α protein (immunoblot)” value in data set [1] was “increased the amount of PGC-1α protein in accordance with an increase in the drug concentration”.
As for `CC(CO)c1ccc(N2Cc3ccccc3C2=O)cc1` (stereo not drawn) [YPD-01, 2-(4-(1-hydroxypropan-2-yl)phenyl) isoindoline-1-one], the “amount of PGC-1α protein (immunoblot)” value in data set [1] is reported as “increased the amount of PGC-1α protein regardless of the concentration”. Besides, in data set [2], the “symptoms of behavioral abnormality (time to come down from the top of the pole)” value is reported as “disappeared”. The “passage through the BBB” value in data set [3] is recorded as “successfully passed through BBB”. In addition, the “protein level of PGC-1α in the SN (immunoblot)” value in data set [3] (quantified with β-actin) is listed as “increased the protein level of PGC-1α”. Also, the “death of dopamine neurons (TH immunohistochemistry)” value in data set [4] was “the death of dopamine neurons was meaningfully inhibited”. In data set [4] (quantified with β-actin), the “death of dopamine neurons (TH immunoblot in substantia nigra)” value is “the death of dopamine neurons by AAV-PARIS was inhibited”. For the same molecule, in data set [5], the “PARIS-induced suppression of expression of NRF-1 (RT-qPCR)” value was “significantly recovered”, the “PARIS-induced suppression of expression of PGC-1α (RT-qPCR)” value is on record as “significantly recovered” and the “PARIS-induced suppression of expression of Tfam (RT-qPCR)” value is given as “significantly recovered”. Also, in the data set on PGC-1α promoter, the “activity on PGC-1α promoter among the 14 drugs (FIG. 5)” value is “highest”.
As for `CC(C)OC(=O)C(C)c1ccc(N2Cc3ccccc3C2=O)cc1` (stereo not drawn) [YPD-03, isopropyl 2-(4-(1-oxoisoindolin-2-yl)phenyl) propanoate], in data set [1], the “amount of PGC-1α protein (immunoblot)” value is listed as “increased the amount of PGC-1α protein in accordance with an increase in the drug concentration”.
